Assay [1] has as its system LPS-induced TNF. More on the design: method as in PMID 29549113. Particulars: mouse model of NOMID, up to 4 weeks after dosing; cited from earlier work.
The subject of assay [2] is TNF. The arrangement: method as in PMID 26904383. Particulars: similar assay and clinical study design; no reference printed, BCT197 paper is ref 53; cited from earlier work.
Assay [3] has as its system THP-1 cells. Kind of assay: In vitro tachyphylaxis model: daily treatment of THP-1 cells, LPS-stimulated TNF. Particulars: up to 14 days, 0.1 or 1 μM CC-99677 or 1 μM p38 inhibitors.
The test system of assay [4] is c-Jun N-terminal kinase (JNK). Particulars: THP-1 cells, macrophages, and synoviocytes; cited from earlier work.

Here are results for eight compounds from PMC9386913 (Arthritis Research & Therapy, 2022).

Regarding `Cc1cnc(-c2ccnc(C(C)(C)O)n2)cc1-n1c(C)cc(OCc2ncc(F)cc2F)c(Cl)c1=O` [ATI-450], the “Inhibition of LPS-induced TNF” value in assay [1] was “showed inhibition of LPS-induced TNF for up to 4 weeks after dosing”. `Cc1ccc(C(=O)NC2CC2)cc1-n1ncc(C(=O)c2cccc(C#N)c2)c1N` [BCT197]: the “Sustained TNF inhibition over treatment period” value in assay [2] is “loss of effect”. Consider `Cc1ccc(-n2nc(C(C)(C)C)cc2NC(=O)Nc2ccc(OCCN3CCOCC3)c3ccccc23)cc1` [BIRB-796], for which, in assay [3], the “LPS-stimulated TNF production under continued daily treatment” value (“LPS-stimulated TNF production” below) is listed as “beginning on day 9, loss of TNF inhibitory effect”.

Regarding `CCCNC(=O)c1cn2ncnc(Nc3cc(C(=O)NC4CC4)ccc3C)c2c1C` [BMS-582949], the “LPS-stimulated TNF production” value in assay [3] is recorded as “beginning on day 9, loss of TNF inhibitory effect”. For `O=C(CO)N1CCC(c2[nH]nc(-c3ccc(Cl)cc3)c2-c2ccncn2)CC1` [CDD-111], in assay [1], the “Inhibition of LPS-induced TNF” value is on record as “did not”. For `C[S+]([O-])c1ccc(-c2nc(-c3ccncc3)c(-c3ccc(F)cc3)[nH]2)cc1` (centres unmarked) [SB203580], in assay [4], the “Activation of c-Jun N-terminal kinase (JNK) upon treatment” value is “activation of c-Jun N-terminal kinase (JNK)”.

Consider `C[C@@H]1CN(Cc2ccc(F)cc2)[C@@H](C)CN1C(=O)c1cc2c(C(=O)C(=O)N(C)C)cn(C)c2cc1Cl` [SCIO-469], for which, in assay [3], the “LPS-stimulated TNF production” value is recorded as “beginning on day 9, loss of TNF inhibitory effect”. In the case of `O=c1ncn2nc(Sc3ccc(F)cc3F)ccc2c1-c1c(Cl)cccc1Cl` [VX-745], the “Activation of c-Jun N-terminal kinase (JNK) upon treatment” value in assay [4] is given as “activation of c-Jun N-terminal kinase (JNK)”.
